Paper PMC9870890 (Nature Communications, 2023)
Where two headings read alike, the source gives them in different places.

Biological target: T1, M2R (Homo sapiens, UniProt P08172, M139L/M142L/M1T/M248L/M296L/M368L/M456T/M45L)
T1 construct: We used a full-length construct M2RFL△8 M for complexing with miniGαo and β-arrestin-1; FLAG (N); 8xHis (C); made in house; host or cells: Sf9 insect cells
T1 sequence (P08172 1-466 M1T/M45L/M139L/M142L/M248L/M296L/M368L/M456T): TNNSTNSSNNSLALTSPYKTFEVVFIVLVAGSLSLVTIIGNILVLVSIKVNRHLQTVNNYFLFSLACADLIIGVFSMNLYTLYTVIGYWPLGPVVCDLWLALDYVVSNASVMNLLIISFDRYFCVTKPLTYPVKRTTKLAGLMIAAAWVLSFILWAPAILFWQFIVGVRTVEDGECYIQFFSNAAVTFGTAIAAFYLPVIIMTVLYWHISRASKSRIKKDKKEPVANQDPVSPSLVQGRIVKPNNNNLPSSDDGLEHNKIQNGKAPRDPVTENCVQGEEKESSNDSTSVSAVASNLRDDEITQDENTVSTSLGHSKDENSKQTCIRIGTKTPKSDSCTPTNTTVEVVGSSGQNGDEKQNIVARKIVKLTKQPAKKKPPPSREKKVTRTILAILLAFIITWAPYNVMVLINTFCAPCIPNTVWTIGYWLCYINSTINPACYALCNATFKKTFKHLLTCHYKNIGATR
Format: biochemical
Conditions: for Phosphorylation intensity: 100 μM Ixo or 1 mM carbachol
Method: We used a full-length construct M2RFL△8 M for complexing with miniGαo and β-arrestin-1. The receptor was purified as described above for cryo-EM sample. Excess GRK2 was mixed with the M2R in a buffer composed of 20 mM HEPES pH 7.5, 100 mM NaCl, 0.01% MNG, 0.003% CHS, 500 μM ATP in the presence and absence of 100 μM Ixo or 1 mM carbachol to initiate the phosphorylation at room temperature. The extent of phosphorylation at various time points (from 0 to 120 min) was evaluated by Pro-Q and Coomassie blue staining. The final phosphorylated receptor (Ixo-bound) was further evaluated by ion-exchange chromatography. The complex formation test was performed as follows: unphosphorylated Ixo-bound M2RFL△8 M or phosphorylated M2RFL△8 M was mixed with miniGαo or β-arrestin-1, respectively and incubated on ice for 30 min. The receptor alone or mixed complex sample were then analyzed by SEC against 20 mM HEPES pH 7.5, 100 mM NaCl, 0.01% MNG, 0.003% CHS in the presence of 10 μM Ixo.

C[N+](C)(C)CC#CCOC1=NOCC1 [Ixo, iperoxo]
Phosphorylation intensity (Time 5 min): 4552.74 | Phosphorylation intensity (Time 10 min): 10530.1 | Phosphorylation intensity (Time 15 min): 15003.3 | Phosphorylation intensity (Time 30 min): 17454.3 | Phosphorylation intensity (Time 60 min): 18635.2 | Phosphorylation intensity (Time 120 min): 18093.2 | induction of GRK2-mediated phosphorylation of M2R (compared with carbachol): more efficient than carbachol
